This is an account of results in patent US20240287080A1 (IDEAYA Biosciences Inc., priority 2021, published 2024).

A word on the IC50: it is the concentration needed to halve the response being measured. High values mean lower potency, low ones higher potency.

T1 sequence (O75417 1-899): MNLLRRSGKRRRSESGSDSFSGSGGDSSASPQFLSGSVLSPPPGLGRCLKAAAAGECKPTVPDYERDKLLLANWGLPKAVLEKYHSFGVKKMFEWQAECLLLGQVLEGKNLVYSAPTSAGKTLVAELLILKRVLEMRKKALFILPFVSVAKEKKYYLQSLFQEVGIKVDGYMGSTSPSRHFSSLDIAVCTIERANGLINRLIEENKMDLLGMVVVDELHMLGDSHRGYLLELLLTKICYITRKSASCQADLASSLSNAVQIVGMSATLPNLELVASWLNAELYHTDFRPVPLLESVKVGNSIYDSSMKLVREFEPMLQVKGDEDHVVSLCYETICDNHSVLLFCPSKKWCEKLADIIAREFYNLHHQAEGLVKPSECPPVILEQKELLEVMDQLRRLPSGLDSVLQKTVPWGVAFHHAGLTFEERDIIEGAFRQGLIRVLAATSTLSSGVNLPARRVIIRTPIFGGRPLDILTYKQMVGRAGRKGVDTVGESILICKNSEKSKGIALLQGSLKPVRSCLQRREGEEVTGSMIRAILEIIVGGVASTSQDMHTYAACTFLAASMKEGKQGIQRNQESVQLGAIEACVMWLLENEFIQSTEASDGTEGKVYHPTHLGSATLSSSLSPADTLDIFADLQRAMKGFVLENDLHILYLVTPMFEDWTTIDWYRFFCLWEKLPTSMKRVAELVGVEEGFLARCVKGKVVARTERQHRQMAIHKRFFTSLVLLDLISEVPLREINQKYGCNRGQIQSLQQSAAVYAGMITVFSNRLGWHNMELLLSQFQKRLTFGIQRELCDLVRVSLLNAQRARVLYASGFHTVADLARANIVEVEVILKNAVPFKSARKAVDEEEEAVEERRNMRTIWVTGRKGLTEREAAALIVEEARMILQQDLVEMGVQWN

One test addresses T1, Pol theta (1-899) (Homo sapiens, UniProt O75417).
T1 construct: Pol theta (1-899) (5 nM) in assay buffer
In words: Pol theta ATPase activity, NADH oxidation-coupled enzymatic assay (ATPase NADH coupling: Standard Screening: hPolQ). It counts as biochemical. Conditions: Pol theta (1-899) 5 nM, NADH oxidation-coupled ATPase assay; compounds of Table 3. Put shortly: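 Rates of ATP hydrolysis taken from 60-min A340 traces of NADH oxidation via PK/LDH coupling, then fit four-parameter for IC50, Hill slope and max inhibition. Enzyme (5 nM, 1-899) and compounds preincubated 15 min before ATP 100 μM and 50-thymine ssDNA 300 nM (stock, equal volume added).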
For `COc1nnc(NC(=O)c2ccc(N)cc2-c2cc(Cl)ncc2OC)s1` [Example 286, 4-amino-2-(2-chloro-5-methoxypyridin-4-yl)-N-(5-methoxy-1,3,4-thiadiazol-2-yl)benzamide], the IC50 is at most 200 nM.

For `COc1cnc(Cl)cc1-c1cc(C)ncc1C(=O)Nc1nnc(O[C@H]2CO[C@H]3[C@@H]2OC[C@H]3O[N+](=O)[O-])s1` [Example 238, (3R,3aS,6S,6aR)-6-((5-(2′-chloro-5′-methoxy-6-methyl-[4,4′-bipyridine]-3-carboxamido)-1,3,4-thiadiazol-2-yl)oxy)hexahydrofuro[3,2-b]furan-3-yl nitrate], the 50% inhibitory concentration (IC50) is at most 200 nM.

Compound `COc1nnc(NC(=O)c2cnc(C)cc2-c2ccc(OC(F)(F)F)cc2)s1` [Example 376, N-(5-methoxy-1,3,4-thiadiazol-2-yl)-6-methyl-4-[4-(trifluoromethoxy)phenyl]pyridine-3-carboxamide] had an IC50 of 1000 to 10000 nM.

Compound `COc1nnc(NC(=O)c2cnc(C)cc2-c2ccc(S(N)(=O)=O)cc2)s1` [Example 378, N-(5-methoxy-1,3,4-thiadiazol-2-yl)-6-methyl-4-(4-sulfamoylphenyl)pyridine-3-carboxamide] had an IC50 of 1000 to 10000 nM.

For the compound `COc1nnc(NC(=O)c2cnc(C)cc2-c2cccs2)s1` [Example 360, N-(5-methoxy-1,3,4-thiadiazol-2-yl)-6-methyl-4-(thiophen-2-yl)pyridine-3-carboxamide], the IC50 is 1000 to 10000 nM.

`COc1cnc(Cl)cc1-c1cc(C)ncc1C(=O)Nc1nnc(O[C@@H]2CCCN([C@H]3CCOC3)C2)s1` [Example 275, 2′-chloro-5′-methoxy-6-methyl-N-(5-(((R)-1-((S)-tetrahydrofuran-3-yl)piperidin-3-yl)oxy)-1,3,4-thiadiazol-2-yl)-[4,4′-bipyridine]-3-carboxamide] gave an IC50 of at most 200 nM.

The compound `COc1nnc(NC(=O)c2cnc(C)cc2-c2ccccc2C)s1` [Example 389, N-(5-methoxy-1,3,4-thiadiazol-2-yl)-6-methyl-4-(2-methylphenyl)pyridine-3-carboxamide] registered an IC50 of 500 to 1000 nM.

`COc1nnc(NC(=O)c2cnc(C)cc2-c2cccc3ncccc23)s1` [Example 485, N-(5-methoxy-1,3,4-thiadiazol-2-yl)-6-methyl-4-(quinolin-5-yl)nicotinamide] registered an IC50 of 200 to 500 nM.

Compound `COc1nnc(NC(=O)c2cnc(C)cc2-c2cnn(Cc3ccccc3)c2)s1` [Example 468, 4-(1-benzyl-1H-pyrazol-4-yl)-N-(5-methoxy-1,3,4-thiadiazol-2-yl)-6-methylnicotinamide] returned an IC50 of 1000 to 10000 nM.

`COc1nnc(NC(=O)c2cnc(C)cc2-c2cc(F)cnc2OC)s1` [Example 431, 5-fluoro-2-methoxy-N-(5-methoxy-1,3,4-thiadiazol-2-yl)-6′-methyl-[3,4′-bipyridine]-3′-carboxamide] gave an IC50 of 500 to 1000 nM.

Consider `COc1cnc(C)cc1-c1cc(C)ncc1C(=O)Nc1nnc(OC2COCC2NCC2CC2)s1` (stereo not drawn) [Example 249, N-(5-((4-((cyclopropylmethyl)amino)tetrahydrofuran-3-yl)oxy)-1,3,4-thiadiazol-2-yl)-5′-methoxy-2′,6-dimethyl-[4,4′-bipyridine]-3-carboxamide], for which the IC50 was at most 200 nM.

The test is the same for the next values; noted with them: Table 4; Pol theta (1-899) 5 nM, ATP, dT50 ssDNA.
Compound `COc1cnc(Cl)cc1-c1cc(C)ncc1C(=O)Nc1nnc(OC2CCS(=O)(=O)CC2)s1` [Example 25, 2′-chloro-N-(5-((1,1-dioxidotetrahydro-2H-thiopyran-4-yl)oxy)-1,3,4-thiadiazol-2-yl)-5′-methoxy-6-methyl-(4,4′-bipyridine)-3-carboxamide] gave an IC50 of at most 200 nM.

For `CCOc1cnc(Cl)cc1-c1cc(C)ncc1C(=O)Nc1nnc(OC)s1` [Example 42, 2′-chloro-5′-ethoxy-N-(5-methoxy-1,3,4-thiadiazol-2-yl)-6-methyl-(4,4′-bipyridine)-3-carboxamide], the IC50 is 200 to 500 nM.

Compound `COc1nnc(NC(=O)c2cnc(C)cc2-c2cc(C3CC3)ncc2OC)s1` [Example 51, 2′-cyclopropyl-5′-methoxy-N-(5-methoxy-1,3,4-thiadiazol-2-yl)-6-methyl-(4,4′-bipyridine)-3-carboxamide] gave an IC50 of at most 200 nM.

`COc1cnc(Cl)cc1-c1cc(C)ncc1C(=O)Nc1nnc(OC2CC2)s1` [Example 7, 2′-chloro-N-(5-cyclopropoxy-1,3,4-thiadiazol-2-yl)-5′-methoxy-6-methyl-(4,4′-bipyridine)-3-carboxamide] registered a half-inhibitory concentration (IC50) of at most 200 nM.

As to `COc1cnc(Cl)cc1-c1cc(C)ncc1C(=O)Nc1nnc(O[C@H]2CC[C@@H](O)CC2)s1` (single isomer, unassigned) [Example 26, 2′-chloro-N-(5-(((1s,4s)-4-hydroxycyclohexyl)oxy)-1,3,4-thiadiazol-2-yl)-5′-methoxy-6-methyl-[4,4′-bipyridine]-3-carboxamide], the IC50 is at most 200 nM.

In turn, `COc1cnc(Cl)cc1-c1cc(C)ncc1C(=O)Nc1nnc(O[C@H]2CC[C@H](O)CC2)s1` (single isomer, unassigned) [Example 27, 2′-chloro-N-(5-(((1r,4r)-4-hydroxycyclohexyl)oxy)-1,3,4-thiadiazol-2-yl)-5′-methoxy-6-methyl-[4,4′-bipyridine]-3-carboxamide] came in with an IC50 of at most 200 nM.

Still in this test, the particulars now being: Table 5; Pol theta (1-899) 5 nM, ATP, dT50 ssDNA.
Turning to `COc1cnc(Cl)cc1-c1cc(C)ncc1C(=O)Nc1nnc(O[C@H]2CCC[C@@H](O)C2)s1` (single isomer, unassigned) [Example 159], the IC50 was at most 200 nM.

Consider `COc1cnc(Cl)cc1-c1cc(C)ncc1C(=O)Nc1nnc(O[C@H]2CCO[C@H]2C)s1` (racemic) [Example 92, rac-2′-Chloro-5′-methoxy-6-methyl-N-(5-(((2R,3R)-2-methyltetrahydrofuran-3-yl)oxy)-1,3,4-thiadiazol-2-yl)-(4,4′-bipyridine)-3-carboxamide], for which the IC50 lay within 200 to 500 nM.

Compound `COc1cnc(Cl)cc1-c1cc(C)ncc1C(=O)Nc1nnc(O[C@@H]2C[C@H]3CC[C@@H]2O3)s1` (single isomer, unassigned) [Example 216] came in with a concentration for half-maximal inhibition (IC50) of at most 200 nM.

`COc1cnc(Cl)c(F)c1-c1cc(C)ncc1C(=O)Nc1nnc(O[C@H]2CC[C@@H](OC)CC2)s1` (single isomer, unassigned) [Example 152, 2′-chloro-3′-fluoro-5′-methoxy-N-(5-(((1s,4s)-4-methoxycyclohexyl)oxy)-1,3,4-thiadiazol-2-yl)-6-methyl-(4,4′-bipyridine)-3-carboxamide] came in with an IC50 of at most 200 nM.

In turn, `COc1cnc(Cl)c(F)c1-c1cc(C)ncc1C(=O)Nc1nnc(O[C@H]2CC[C@](C)(O)CC2)s1` (single isomer, unassigned) [Example 172, 2′-chloro-3′-fluoro-N-(5-(((1r,4r)-4-hydroxy-4-methylcyclohexyl)oxy)-1,3,4-thiadiazol-2-yl)-5′-methoxy-6-methyl-(4,4′-bipyridine)-3-carboxamide] displayed an IC50 of at most 200 nM.

Staying with this test, now noted: Table 5; values given as bound; Pol theta (1-899) 5 nM, ATP, dT50 ssDNA.
The compound `COc1nnc(NC(=O)c2cnc(C)cc2-c2cccn3ncnc23)s1` [Example 123, 4-((1,2,4)triazolo(1,5-a)pyridin-8-yl)-N-(5-methoxy-1,3,4-thiadiazol-2-yl)-6-methylnicotinamide] had a 50% inhibitory concentration (IC50) above 10000 nM.

The compound `COc1nnc(NC(=O)c2cc(CO)ncc2-c2c(F)cccc2OC)s1` [Example 121, 5-(2-fluoro-6-methoxyphenyl)-2-(hydroxymethyl)-N-(5-methoxy-1,3,4-thiadiazol-2-yl)isonicotinamide] yielded an IC50 above 10000 nM.
